In general, MIC refers to the lowest concentration found to suppress growth.

Structures are written as SMILES. Values after ≈ are worked out from the molar mass of the structure shown. Bounds are passed on as bounds.

The subject of one assay is C. albicans. Nature of the assay: Minimum Inhibitory Concentration (MIC) (C. albicans), CLSI M27-A2. The note with it: Candida albicans; approximately 48 h at 35±1° C.; about 50% growth reduction. It is filed as cell-based. As to the method: A. Minimum Inhibitory Concentration (MIC) (C. albicans) Compounds of the present disclosure were assessed for their ability to inhibit the growth of common strains of fungus, C. albicans using a standardized procedure (CLSI M27-A2). Stock solutions of the test compounds and standards were prepared in DMSO at 1,600 μg/mL (C. albicans). Eleven, serial, one-half dilutions of compounds were prepared in 96-well plates in RPMI+MOPS. The assay concentration ranges were 8-0.001 μg/mL (C. albicans). Cell suspensions of C. albicans were prepared and added to each well at concentrations of approximately 3.7×10^3 colony-forming-units per milliliter (cfu/mL). All testing was in duplicate. The inoculated plates were incubated for approximately 48 h at 35±1° C. At the completion of incubation the wells of each plate were evaluated visually for the presence of fungal growth. […] For QC purposes C. krusei isolate ATCC 6258 (4.0×10^3 cfu/mL) was included in the VOR assay.

The test system of assay [1] is Septoria tritici (ATCC 26517). Nature of the assay: Minimum Inhibitory Concentration (MIC) (Septoria tritici), CLSI-based microdilution. It is filed as cell-based. As to conditions: Zymoseptoria tritici, ATCC26517, 168 h, S. tritici ATCC 26517; 22° C. for seven days; 50% reduction in growth; read-out: Septoria Rating (MIC). The method, boiled down: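 S. tritici (ATCC 26517) tested by CLSI-style broth microdilution for filamentous fungi in RPMI-1640/MOPS, 2-fold series 16–0.016 μg/mL (11 concentrations, 2% DMSO before inoculum), duplicate rows. Inoculum ~5×10^4 cfu/mL; plates incubated 7 days at 22 °C in the dark, static; growth scored on a rating scale.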
On the technique in general: Dilution methods test growth across graded concentrations, often in twofold steps.

Assay [2] has as its system Puccinia recondita tritici = Puccinia triticina. Nature of the assay: Fungicidal activity vs. leaf rust on wheat plants. It is filed as in vivo. As to conditions: wheat (variety Yuma) sprayed at 50 ppm, inoculated on the following day, evaluated 7-9 days later; read-out: Puccinia Rating (% Disease Control @ 50 ppm). The text has this: D. Evaluation of Fungicidal Activity Vs. Leaf Rust (Causal Agent Puccinia recondita tritici=Puccinia triticina; Bayer Code PUCCRT). […] Each pot contained 3-8 seedlings. These plants were sprayed until wet with the formulated test compounds. The compounds were formulated at 50 ppm in 10 vol. % acetone plus 90 vol. % Triton X water (deionized water 99.99 wt %+0.01 wt % Triton X100), giving a “formulated test compound.” Formulated test compounds were applied to plants using a turn table sprayer fitted with two opposing air atomization nozzles which delivered approximately 1500 L/ha of spray volume. On the following day, the leaves were inoculated with an aqueous spore suspension of Puccinia recondita tritici and the plants were kept in high humidity overnight to permit spores to germinate and infect the leaf. The plants were then transferred to a greenhouse until disease developed on untreated control plants. Disease severity was evaluated 7-9 days later, depending on the speed of disease development. In each case of Table 3, the Puccinia rating scale is as follows: […]

For `CCOC(=O)/C=C/c1ccc(C(F)(F)C(O)(Cn2cnnn2)c2ccc(F)cc2F)nc1` (centres unmarked) [Compound 4, (E)-Ethyl 3-(6-(2-(2,4-difluorophenyl)-1,1-difluoro-2-hydroxy-3-(1H-tetrazol-1-yl)propyl)pyridin-3-yl)acrylate], the MIC in the assay on C. albicans was at most 0.016 µg/mL; in assay [1], at most 0.5 µg/mL.

Consider `OC(Cn1cnnn1)(c1ccc(F)cc1F)C(F)(F)c1ccc(/C=C/COCC(F)(F)F)cn1` (centres unmarked) [Compound 6, (E)-2-(2,4-Difluorophenyl)-1,1-difluoro-3-(1H-tetrazol-1-yl)-1-(5-(3-(2,2,2-trifluoroethoxy)prop-1-en-1-yl)pyridin-2-yl)propan-2-ol], for which the MIC with C. albicans was at most 0.016 µg/mL; in assay [1] it was at most 0.5 µg/mL. Also, the pest or weed control at 50 ppm in assay [2] was below 40%.

In the assay on C. albicans, `OC(Cn1cnnn1)(c1ccc(F)cc1F)C(F)(F)c1ccc(-c2ccc(Cl)nc2)cn1` (centres unmarked) [Compound 30, 1-(6′-Chloro-[3,3′-bipyridin]-6-yl)-2-(2,4-difluorophenyl)-1,1-difluoro-3-(1H-tetrazol-1-yl)propan-2-ol] showed an MIC of 0.062 µg/mL (≈ 0.133 µM). For the same molecule, the pest or weed control at 50 ppm in assay [2] fell in the range of 80 to 100%.

For `OC(Cn1cnnn1)(c1ccc(F)cc1F)C(F)(F)c1ccc(Cc2ccc(C(F)(F)F)cc2)cn1` (centres unmarked) [Compound 73, 2-(2,4-Difluorophenyl)-1,1-difluoro-3-(1H-tetrazol-1-yl)-1-(5-(4-(trifluoromethyl)benzyl)pyridin-2-yl)propan-2-ol], the MIC in assay [1] was at most 0.5 µg/mL. In addition, in assay [2], the pest or weed control at 50 ppm was 80 to 100%.

`OC(Cn1cnnn1)(c1ccc(F)cc1F)C(F)(F)c1ccc(Cc2ccccc2)cn1` (centres unmarked) [Compound 75, 1-(5-Benzylpyridin-2-yl)-2-(2,4-difluorophenyl)-1,1-difluoro-3-(1H-tetrazol-1-yl)propan-2-ol]: in assay [1], the minimal inhibitory concentration (MIC) was at most 0.5 µg/mL. Also, in assay [2], the pest or weed control at 50 ppm lay within 80 to 100%.

As to `OC(Cn1cnnn1)(c1ccc(F)cc1F)C(F)(F)c1ccc(Cc2ccc(OC(F)(F)F)cc2)cn1` (centres unmarked) [Compound 76, 2-(2,4-Difluorophenyl)-1,1-difluoro-3-(1H-tetrazol-1-yl)-1-(5-(4-(trifluoromethoxy)benzyl)pyridin-2-yl)propan-2-ol], the minimal inhibitory concentration (MIC) in assay [1] is at most 0.5 µg/mL. For the same molecule, in assay [2], the pest or weed control at 50 ppm is 80 to 100%.

With `OC(Cn1cnnn1)(c1ccc(F)cc1F)C(F)(F)c1ccc(Cc2ccc(Cl)cc2)cn1` (centres unmarked) [Compound 77, 1-(5-(4-Chlorobenzyl)pyridin-2-yl)-2-(2,4-difluorophenyl)-1,1-difluoro-3-(1H-tetrazol-1-yl)propan-2-ol], the minimal inhibitory concentration (MIC) in assay [1] was at most 0.5 µg/mL. Also, in assay [2], the pest or weed control at 50 ppm lay within 80 to 100%.

Consider `N#Cc1ccc(OCc2ccc(C(F)(F)C(O)(Cn3cnnn3)c3ccc(F)cc3F)nc2)cc1` (centres unmarked) [Compound 79, 4-((6-(2-(2,4-Difluorophenyl)-1,1-difluoro-2-hydroxy-3-(1H-tetrazol-1-yl)propyl)pyridin-3-yl)methoxy)benzonitrile], for which the MIC in assay [1] was at most 0.5 µg/mL. Moreover, in assay [2], the pest or weed control at 50 ppm lay within 80 to 100%.

Consider `OC(Cc1cnco1)(c1ccc(F)cc1F)C(F)(F)c1ccc(Br)cn1` (centres unmarked) [Compound 83, 1-(5-Bromopyridin-2-yl)-2-(2,4-difluorophenyl)-1,1-difluoro-3-(oxazol-5-yl)propan-2-ol], for which, in assay [1], the MIC was at most 0.5 µg/mL. Besides, the pest or weed control at 50 ppm in assay [2] was 80 to 100%.

As for `N#Cc1ccc(OCc2ccc(C(F)(F)C(O)(Cn3cnnn3)c3ccc(F)cc3F)nc2)c(F)c1` (centres unmarked) [Compound 88, 4-((6-(2-(2,4-difluorophenyl)-1,1-difluoro-2-hydroxy-3-(1H-tetrazol-1-yl)propyl)pyridin-3-yl)methoxy)-3-fluorobenzonitrile], the minimal inhibitory concentration (MIC) in assay [1] is at most 0.5 µg/mL. The pest or weed control at 50 ppm in assay [2] lay within 80 to 100%.

For the molecule `N#Cc1cccc(OCc2ccc(C(F)(F)C(O)(Cn3cnnn3)c3ccc(F)cc3F)nc2)c1F` (centres unmarked) [Compound 89, 3-((6-(2-(2,4-difluorophenyl)-1,1-difluoro-2-hydroxy-3-(1H-tetrazol-1-yl)propyl)pyridin-3-yl)methoxy)-2-fluorobenzonitrile], the minimal inhibitory concentration (MIC) in assay [1] was at most 0.5 µg/mL. In addition, the pest or weed control at 50 ppm in assay [2] lay in the range of 80 to 100%.

Turning to `N#Cc1ccc(SCc2ccc(C(F)(F)C(O)(Cn3cnnn3)c3ccc(F)cc3F)nc2)c(F)c1` (centres unmarked) [Compound 90, 4-(((6-(2-(2,4-difluorophenyl)-1,1-difluoro-2-hydroxy-3-(1H-tetrazol-1-yl)propyl)pyridin-3-yl)methyl)thio)-3-fluorobenzonitrile], in assay [1], the minimum inhibitory concentration (MIC) turned out to be 1.5 µg/mL (≈ 2.89 µM). In addition, in assay [2], the pest or weed control at 50 ppm lay within 40 to 59%.

Regarding `OC(Cn1cnnn1)(c1ccc(F)cc1F)C(F)(F)c1ccc(COC(F)F)cn1` (centres unmarked) [Compound 92, 1-(5-((difluoromethoxy)methyl)pyridin-2-yl)-2-(2,4-difluorophenyl)-1,1-difluoro-3-(1H-tetrazol-1-yl)propan-2-ol], in assay [1], the MIC is at most 0.5 µg/mL. Besides, the pest or weed control at 50 ppm in assay [2] lay within 80 to 100%.

Take `OC(Cn1cnnn1)(c1ccc(F)cc1F)C(F)(F)c1ccc(-c2ccc(Cl)cn2)cn1` (centres unmarked) [Compound 93, 1-(5-chloro-[2,3′-bipyridin]-6′-yl)-2-(2,4-difluorophenyl)-1,1-difluoro-3-(1H-tetrazol-1-yl)propan-2-ol]: the MIC in assay [1] was at most 0.5 µg/mL. Also, the pest or weed control at 50 ppm in assay [2] was in the range of 80 to 100%.

Turning to `OC(Cn1cnnn1)(c1ccc(F)cc1F)C(F)(F)c1ccc(-c2ccc(C(F)(F)F)cn2)cn1` (centres unmarked) [Compound 94, 2-(2,4-difluorophenyl)-1,1-difluoro-3-(1H-tetrazol-1-yl)-1-(5-(trifluoromethyl)-[2,3′-bipyridin]-6′-yl)propan-2-ol], the minimal inhibitory concentration (MIC) in assay [1] is at most 0.5 µg/mL. In addition, the pest or weed control at 50 ppm in assay [2] was in the range of 80 to 100%.

Take `N#Cc1ccc(-c2ccc(C(F)(F)C(O)(Cn3cnnn3)c3ccc(F)cc3F)nc2)nc1` (centres unmarked) [Compound 95, 6′-(2-(2,4-difluorophenyl)-1,1-difluoro-2-hydroxy-3-(1H-tetrazol-1-yl)propyl)-[2,3′-bipyridine]-5-carbonitrile]: the minimal inhibitory concentration (MIC) in assay [1] was 1.5 to 4 µg/mL (≈ 3.29 to 8.78 µM). Moreover, the pest or weed control at 50 ppm in assay [2] was 80 to 100%.

Regarding `OC(Cn1cnnn1)(c1ccc(F)cc1F)C(F)(F)c1ccc(-c2ccncc2)cn1` (centres unmarked) [Compound 96, 1-([3,4′-bipyridin]-6-yl)-2-(2,4-difluorophenyl)-1,1-difluoro-3-(1H-tetrazol-1-yl)propan-2-ol], in assay [1], the MIC lay in the range of 1.5 to 4 µg/mL (≈ 3.49 to 9.29 µM). In assay [2], the pest or weed control at 50 ppm lay within 60 to 79%.

`N#Cc1ccc(OCc2ccc(C(F)(F)C(O)(Cn3cnnn3)c3ccc(F)cc3F)nc2)nc1` (centres unmarked) [Compound 98, 6-((6-(2-(2,4-difluorophenyl)-1,1-difluoro-2-hydroxy-3-(1H-tetrazol-1-yl)propyl)pyridin-3-yl)methoxy)nicotinonitrile]: in assay [1], the MIC is at most 0.5 µg/mL. In assay [2], the pest or weed control at 50 ppm was in the range of 80 to 100%.

With `OC(Cn1cnnn1)(c1ccc(F)cc1F)C(F)(F)c1ccc(COc2ccc(C(F)(F)F)cn2)cn1` (centres unmarked) [Compound 99, 2-(2,4-difluorophenyl)-1,1-difluoro-3-(1H-tetrazol-1-yl)-1-(5-(((5-(trifluoromethyl)pyridin-2-yl)oxy)methyl)pyridin-2-yl)propan-2-ol], the minimal inhibitory concentration (MIC) in assay [1] was at most 0.5 µg/mL. Further, in assay [2], the pest or weed control at 50 ppm is 80 to 100%.

Take `OC(Cn1cnnn1)(c1ccc(F)cc1F)C(F)(F)c1ccc(COc2ncc(C(F)(F)F)cc2Cl)cn1` (centres unmarked) [Compound 100]: the minimum inhibitory concentration (MIC) in assay [1] is at most 0.5 µg/mL. Further, the pest or weed control at 50 ppm in assay [2] was 80 to 100%.

In the case of `OC(Cn1cnnn1)(c1ccc(F)cc1F)C(F)(F)c1ccc(C(F)(F)c2ccc(F)cc2)cn1` (centres unmarked) [Compound 101, 1-(5-(difluoro(4-fluorophenyl)methyl)pyridin-2-yl)-2-(2,4-difluorophenyl)-1,1-difluoro-3-(1H-tetrazol-1-yl)propan-2-ol], the MIC in assay [1] fell in the range of 1.5 to 4 µg/mL (≈ 3.02 to 8.04 µM). In addition, the pest or weed control at 50 ppm in assay [2] was in the range of 80 to 100%.

Consider `OC(Cn1cnnn1)(c1ccc(F)cc1F)C(F)(F)c1ccc(C(F)(F)c2ccc(C(F)(F)F)cc2)cn1` (centres unmarked) [Compound 102, 1-(5-(difluoro(4-(trifluoromethyl)phenyl)methyl)pyridin-2-yl)-2-(2,4-difluorophenyl)-1,1-difluoro-3-(1H-tetrazol-1-yl)propan-2-ol], for which the MIC in assay [1] fell in the range of 1.5 to 4 µg/mL (≈ 2.74 to 7.31 µM). Besides, the pest or weed control at 50 ppm in assay [2] lay within 80 to 100%.

Consider `N#Cc1ccc(C(F)(F)c2ccc(C(F)(F)C(O)(Cn3cnnn3)c3ccc(F)cc3F)nc2)cc1` (centres unmarked) [Compound 103, 4-((6-(2-(2,4-difluorophenyl)-1,1-difluoro-2-hydroxy-3-(1H-tetrazol-1-yl)propyl)pyridin-3-yl)difluoromethyl)benzonitrile], for which the MIC in assay [1] fell in the range of 1.5 to 4 µg/mL (≈ 2.97 to 7.93 µM). Further, in assay [2], the pest or weed control at 50 ppm was 80 to 100%.

The record behind these values is patent US9221791B2, “Metalloenzyme inhibitor compounds” (Viamet Pharmaceuticals, Inc., priority 2011, dated 2015).
